Each structure is given as a SMILES string. Bounds are passed on as bounds.

The nature of series [1]: DPPH-radical-scavenging assay. Conditions: 30 min, absorbance at 515 nm; mean ± SD, three independent experiments; read-out: Radical-scavenging activity against DPPH, IC50. Here is the method: The radical-scavenging activities of compounds 1–6 were determined using DPPH (a stable free radical), employing the method of microdilution in 96-well microplates described by Zhang et al. and Yamaguchi et al., with some modifications. The assays were performed in triplicate, using caffeic acid as a standard compound and a DPPH solution in EtOH (200 µM) as a negative control. Solutions of samples in EtOH at 200 µM were serially diluted to 100, 50, 25, 12.5, and 6.25 µM. Each solution (100 µL) was mixed with 100 µL of DPPH solution. The samples were allowed to stand at room temperature in the dark for 30 min, after which their absorbances were recorded at 515 nm. The ability of test materials to scavenge DPPH radicals was calculated as follows: DPPH scavenging effect (%) = 100 (Acontrol − Asample)/Acontrol. Radical-scavenging activities were assessed on the basis of their IC50 values determined by linear regression.
A general note: The DPPH test is a chemical assay of radical scavenging.

Series [2] relates to 786-0. The series can be described thus: SRB cytotoxicity assay, 786-0 kidney carcinoma cells. Conditions: Homo sapiens, 786-0, read-out: Cytotoxicity IC50, 786-0. (The SRB assay estimates cell density from bound dye.)
Protocol: (§2) To this end, a sulforhodamine B (SRB; purity ≥ 97%; Sigma, St. Louis, MO, USA) assay was performed, as described elsewhere [53, 54]. […] IC50 values were calculated from the differences in absorbance readings at 540 nm in untreated (negative control) and treated cells on a SpectraMax 190 microplate reader (Molecular Devices, San Jose, CA, USA) [53] through nonlinear regression analysis, using Origin 6.0 software (OriginLab, Northampton, MA, USA), and growth percentages were calculated as described elsewhere [53]. The data presented are the mean ± standard deviation of at least three independent cell preparations made in triplicate.
Series [3] relates to MCF-7. Nature of the series: SRB cytotoxicity assay, MCF-7 breast carcinoma cells. Conditions: Homo sapiens, MCF7, read-out: Cytotoxicity IC50, MCF-7.
Protocol: as §2
The subject of series [4] is Hep2. The series can be described thus: SRB cytotoxicity assay, Hep2 larynx carcinoma cells. Conditions: Homo sapiens, HEp-2, mean ± SD, three independent experiments. It counts as cell-based.
In series [5] the test system is NCI/ADR-RES. The series can be described thus: SRB cytotoxicity assay, NCI/ADR-RES ovary carcinoma cells, multidrug-resistant phenotype. The following applies: Homo sapiens, read-out: Cytotoxicity IC50, NCI/ADR-RES.
Protocol: as §2
Series [6] has as its system UACC-62. The series can be described thus: SRB cytotoxicity assay, UACC-62 melanoma cells. The following applies: for IC50: Homo sapiens, UACC-62, read-out: Cytotoxicity IC50, UACC-62.
Protocol: as §2
Series [7] can be described thus: SRB cytotoxicity assay, VERO nonneoplastic cells. The format is cell-based, monkey. Conditions: monkey, VERO (monkey kidney) nonneoplastic cells; at 2.5 µg mL^−1. The text has this: (§1) In addition, 4 inhibited the proliferation of UACC-62 and VERO cells in a dose-dependent manner.
For series [8], the system named is VERO cells. Nature of the series: SRB cytotoxicity assay, VERO nonneoplastic cells. It counts as cell-based, monkey.
From the text: as §1

The mark [9] stands for this setting: 0.25, 2.5 and 25 µg mL^−1, points above zero in growth curves (Figure 2).

On to `O=C(O)/C=C/c1ccc(O)c(O)c1` [Caffeic acid, caffeic acid, reference compound], for which the IC50 in series [1] is 10.9 ± 0.1 µM.
Consider `COc1cc(CCc2cc(OC)c(OC)c(Oc3cc(OC)c(OC)c(OC)c3)c2)ccc1O` [Compound 1, 4′-Hydroxy-3,3′,4-trimethoxy-5-(3,4,5-trimethoxyphenoxy)-bibenzyl], for which the IC50 in series [2] came to 113 ± 2.89 µM; in series [3] it was 72.7 ± 4.87 µM; in series [1], 56.5 ± 0.3 µM; in series [4] it was 218 ± 2.52 µM; in series [5], 32.1 ± 4.31 µM.
As for `COc1cc2c(ccc3cc(O)cc(OC)c32)cc1O` [Compound 2, 2,7-Dihydroxy-4,6-dimethoxyphenanthrene], the IC50 in series [6] was greater than 250 µM; in series [2], 73.3 ± 7.7 µM; in series [3], 118 ± 9.29 µM; in series [1], 20.4 ± 0.3 µM; in series [4], greater than 250 µM; in series [5], 84 ± 5.4 µM.
Take `COc1cc2ccc3cc(O)c(OC)c(OC)c3c2cc1O` [Compound 3, 2,6-Dihydroxy-3,4,7-trimethoxyphenanthrene]: the IC50 in series [6] came to 247 ± 10.3 µM; in series [2], 64.3 ± 9.62 µM; in series [3], 226 ± 5.09 µM; in series [1] it was 45.6 ± 0.3 µM; in series [5], 117 ± 2.66 µM.
As usually defined, the viability is a read-out of living cells in per cent, often relative to untreated cells. `COc1cc2c(cc1O)CCc1cc(O)cc(OC)c1-2` [Compound 4, 2,7-dihydroxy-4,6-dimethoxy-9,10-dihydrophenanthrene]: in series [6] (setting [9]), the “Effect on UACC-62 cell growth” value is “cytostatic (growth inhibition) effect”. Also, the IC50 in series [6] was determined as 2.59 ± 0.11 µM; in series [2], 57 ± 9.29 µM; in series [3], 47 ± 5.55 µM; in series [1], 55.6 ± 0.4 µM; in series [4], 208 ± 17.1 µM; in series [5], 58.8 ± 2.33 µM. For the same molecule, in series [8] (Primates, Vero, SRB assay, read-out: IC50 on nontumor mammalian VERO cells), the IC50 is 65.1 ± 4.51 µM. In addition, the “Concentration from which a cytocidal (cell death) effect is seen on UACC-62 cells” value in series [6] (points below zero in growth curves (Figure 2)) is no less than 2.5 µg/mL. In series [7], this molecule registered a viability at 2.5 µg mL^−1 of roughly 100%. Further, the “Effect on VERO cell growth” value in series [8] (setting [9]) is “cytostatic (growth inhibition) effect”.
`COc1cc2c(cc1O)-c1c(cc(O)c(OC)c1OC)CC2` [Compound 5, 2,6-Dihydroxy-3,4,7-trimethoxy-9,10-dihydrophenanthrene]: the IC50 in series [6] worked out at 222 ± 3.04 µM; in series [2] it was 199 ± 6.75 µM; in series [3], 42 ± 9.33 µM; in series [1], 32.9 ± 0.3 µM; in series [4] it was 223 ± 2.81 µM; in series [5], 212 ± 14.1 µM.
On to `COc1cc2c(cc1O)-c1c(cc(O)cc1OC)CC2` [Compound 6, 2,6-dihydroxy-4,7-dimethoxy-9,10-dihydrophenanthrene], for which the IC50 in series [6] was 268 ± 13.8 µM; in series [2] it was 257 ± 6.51 µM; in series [3], 160 ± 8.21 µM; in series [1], 17.7 ± 0.3 µM; in series [4], 547.58 ± 0.11 µM; in series [5], 303 ± 12.6 µM.

(Values after article PMC7397156, “Cytotoxic Phenanthrene, Dihydrophenanthrene, and Dihydrostilbene Derivatives and Other Aromatic Compounds from Combretum laxum” (Molecules, 2020).)
